The source of these data is US7183075B2, “Purified and isolated potassium-chloride cotransporter nucleic acids and polypeptides and therapeutic and screening methods using same” (Vanderbilt University, priority 2000, dated 2007).

Read-outs that look alike come from different tables or passages of the source.

One assay has as its target T1, hKCC3a (Homo sapiens, UniProt Q9UHW9, L346X/L35X/L789X).
T1 construct: A full-length hKCC3a construct has also been generated for functional expression; expressed in transfected cells; host or cells: Xenopus laevis oocytes injected with cRNA
T1 sequence (Q9UHW9 1-1150 L35X/L346X/L789X): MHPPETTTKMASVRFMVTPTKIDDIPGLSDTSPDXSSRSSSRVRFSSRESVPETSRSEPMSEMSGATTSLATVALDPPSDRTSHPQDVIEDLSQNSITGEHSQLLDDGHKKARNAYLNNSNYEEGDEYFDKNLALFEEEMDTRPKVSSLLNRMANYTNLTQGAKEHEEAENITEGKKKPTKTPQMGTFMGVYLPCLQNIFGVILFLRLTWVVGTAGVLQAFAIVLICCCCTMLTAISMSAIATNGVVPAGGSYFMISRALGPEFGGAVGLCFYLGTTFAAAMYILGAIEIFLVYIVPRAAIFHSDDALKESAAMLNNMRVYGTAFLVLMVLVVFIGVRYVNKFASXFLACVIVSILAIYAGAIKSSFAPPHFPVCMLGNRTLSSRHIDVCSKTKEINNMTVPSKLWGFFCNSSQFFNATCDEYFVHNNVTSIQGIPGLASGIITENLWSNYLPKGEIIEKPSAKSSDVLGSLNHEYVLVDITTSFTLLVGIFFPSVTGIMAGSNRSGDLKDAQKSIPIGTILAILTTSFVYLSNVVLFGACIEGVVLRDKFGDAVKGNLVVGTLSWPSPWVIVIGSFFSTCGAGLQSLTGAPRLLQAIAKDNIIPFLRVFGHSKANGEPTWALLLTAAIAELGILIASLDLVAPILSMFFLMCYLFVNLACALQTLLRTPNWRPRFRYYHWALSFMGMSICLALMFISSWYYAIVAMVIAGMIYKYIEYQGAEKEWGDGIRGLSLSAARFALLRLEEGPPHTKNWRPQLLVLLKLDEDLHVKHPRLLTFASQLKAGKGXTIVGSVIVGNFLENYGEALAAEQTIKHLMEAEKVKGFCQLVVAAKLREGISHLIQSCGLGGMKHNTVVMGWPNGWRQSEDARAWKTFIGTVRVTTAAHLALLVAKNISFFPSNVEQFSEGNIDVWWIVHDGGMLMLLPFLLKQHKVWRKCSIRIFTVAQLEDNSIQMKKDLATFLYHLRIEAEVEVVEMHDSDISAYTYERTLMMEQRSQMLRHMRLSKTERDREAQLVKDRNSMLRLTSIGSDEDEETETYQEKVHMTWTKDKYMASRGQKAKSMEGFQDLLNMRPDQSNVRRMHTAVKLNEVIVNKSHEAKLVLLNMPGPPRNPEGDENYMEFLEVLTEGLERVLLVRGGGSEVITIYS
The assay can be described thus: 86Rb+ uptake (K+-Cl- cotransport) in Xenopus oocytes injected with hKCC3a cRNA. Type of assay: cell-based. As to conditions: for Km: KCC3.

Another assay concerns the target T2, rat KCC2 (Rattus norvegicus, UniProt Q63633).
T2 construct: host or cells: HEK293 cells
T2 sequence (Q63633 1-1116 isoform Q63633-2): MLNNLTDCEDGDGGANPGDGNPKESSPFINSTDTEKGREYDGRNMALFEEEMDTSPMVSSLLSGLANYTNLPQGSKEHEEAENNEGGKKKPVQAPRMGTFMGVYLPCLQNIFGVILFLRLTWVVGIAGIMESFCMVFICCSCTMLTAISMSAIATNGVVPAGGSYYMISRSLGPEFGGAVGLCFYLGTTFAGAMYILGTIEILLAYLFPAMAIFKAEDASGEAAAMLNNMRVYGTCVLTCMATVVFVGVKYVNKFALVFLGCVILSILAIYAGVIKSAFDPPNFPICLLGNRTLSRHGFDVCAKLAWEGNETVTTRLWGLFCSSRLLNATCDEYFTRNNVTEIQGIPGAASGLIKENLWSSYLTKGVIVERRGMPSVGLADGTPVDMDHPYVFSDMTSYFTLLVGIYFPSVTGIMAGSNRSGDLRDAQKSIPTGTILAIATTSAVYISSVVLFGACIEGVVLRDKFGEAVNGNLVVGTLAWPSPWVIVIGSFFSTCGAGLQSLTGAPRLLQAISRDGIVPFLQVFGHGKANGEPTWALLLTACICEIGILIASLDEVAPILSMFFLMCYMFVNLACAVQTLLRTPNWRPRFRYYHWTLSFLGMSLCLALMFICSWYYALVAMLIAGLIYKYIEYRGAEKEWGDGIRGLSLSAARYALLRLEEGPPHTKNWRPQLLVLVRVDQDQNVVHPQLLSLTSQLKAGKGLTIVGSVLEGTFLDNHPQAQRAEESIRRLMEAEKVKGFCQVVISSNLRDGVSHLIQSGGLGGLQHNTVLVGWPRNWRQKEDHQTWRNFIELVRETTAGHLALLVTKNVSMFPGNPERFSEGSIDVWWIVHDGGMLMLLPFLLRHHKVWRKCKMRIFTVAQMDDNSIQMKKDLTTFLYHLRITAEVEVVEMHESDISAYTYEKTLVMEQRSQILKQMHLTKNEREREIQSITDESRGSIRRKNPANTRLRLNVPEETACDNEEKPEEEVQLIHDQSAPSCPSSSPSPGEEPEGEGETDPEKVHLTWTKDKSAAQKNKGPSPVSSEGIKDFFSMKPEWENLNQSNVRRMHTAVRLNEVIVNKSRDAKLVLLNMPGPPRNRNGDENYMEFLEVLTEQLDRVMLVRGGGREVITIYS
As to conditions: rat KCC2 in HEK293 cells; read-out: chloride affinity (Km) reported for rKCC2; cited from earlier work.

Assay [1] concerns Na^+—K^+-2Cl^− cotransport activity of Xenopus oocytes. The assay can be described thus: Endogenous Na+-K+-2Cl- cotransport activity of Xenopus oocytes. It counts as cell-based. To be noted: 100 μM DIOA. On the procedure:
The sensitivity of the KCCs to other inhibitors of red cell K^+—Cl^− cotransport was also assessed in oocytes injected with KCC4 or KCC1. FIG. 18 illustrates the effect of 100 μM DIDS and 100 μM DIOA on the ^86Rb^+ uptake induced by the microinjection of each KCC cRNA. The effect of extracellular K^+ concentration on the inhibition of cotransport was very dramatic for DIDS. […] However, inhibition of KCC4 was higher when extracellular K^+ was lower, although this was not the case for KCC1. DIOA is reportedly specific for K^+—Cl^− cotransport over Na^+—K^+-2Cl^− cotransport (Garay et al. (1988) Mol Pharmacol 33:696–701), and the same concentration of DIOA had no effect on the function of the Na^+—K^+-2Cl^− cotransport activity of Xenopus oocytes (Gamba et al. (1994) J Biol Chem 269: 17713–17722).

Broadly, the Km is the concentration of substrate that gives half-maximal velocity. On to `[K+]` [Potassium], for which, on hKCC3a (read-out: Potassium Km), the Michaelis-Menten constant (Km) was found to be 51.9 mM. As for `Cl` [Chloride], the Km at hKCC3a (read-out: Chloride Km) is 14.2 mM; on rat KCC2 it was over 50 mM.

As to `CCCCC1(C2CCCC2)Cc2cc(OCC(=O)O)c(Cl)c(Cl)c2C1=O` (centres unmarked) [DIOA], the “effect on Na+-K+-2Cl- cotransport activity of Xenopus oocytes” value in assay [1] was “no effect”.

As for HgCl2 [Hg—Cl2], the “response of KCC3a to mercury” value on hKCC3a (50 μM HgCl2, hypotonic) was “resistant”.
